# Data as given in patent US11174262B2, “Compounds, compositions and methods” (Denali Therapeutics Inc., priority 2017, dated 2021).
# Biological target: GST-hRIPK1 (8-327) (Homo sapiens (Human), UniProt Q13546)
# Assay: Fluorescent Polarization Binding (FP Binding) assay, RIPK1
# Conditions: 10 nM GST-hRIPK1 (8-327), 5 nM fluorescent-labeled ligand, RT, 30 min, mean of minimum two experiments
# Experimental: Fluorescent Polarization Binding (FP Binding) assay (Berger S. B. et al. (2015) Cell Death Discovery, 1: 15009; Maki J. L. et al. (2012) Anal Biochem., 427 (2): 164-174) was performed in polystyrene low volume 384-well black plate, at Room Temperature (RT) in a final volume of 10.1 μL/well using 10 nM of GST-hRIPK1 (8-327) enzyme and 5 nM of fluorescent-labeled ligand (14-(2-{[3-({2-{[4-(cyanomethyl)phenyl]amino}-6-[(5-cyclopropyl-1H-pyrazol-3-yl)amino]-4-pyrimidinyl}amino) propyl]amino}-2-oxoethyl)-16,16,18,18-tetramethyl-6,7,7a,8a,9,10,16,18-octahydrobenzo [2″,3″]indolizino[8″,7″:5′,6′]pyrano [3′,2′:3,4]pyrido[1,2-a]indol-5-ium-2-sulfonate.
# Test compounds were serially diluted in DMSO at 100 fold final concentrations in the assay (1% DMSO final). In each well of a 384-well Plate were dispensed 0.1 μL of compound solution (or DMSO for controls) followed by 5 μL of GST-hRIPK1 (8-327) at twice the final concentrations in assay buffer (50 mM HEPES pH 7.5, 10 mM NaCl, 50 mM MgCl2, 0.02% CHAPS, 0.5 mM DTT and 0.01% Pluronic F127). For negative control the enzyme addition was replaced by assay buffer only.
# After addition of 5 μL of fluorescent-labeled ligand at twice the final concentrations in assay buffer, the plate was incubated at RT for […]. At the end, the binding was measured as FP value with the Envision (PerkinElmer) plate reader using filter for an excitation λ=531 nm FP and an emission λ=595 nm FP (S & P-pol).
# Test compound inhibition was expressed as percent inhibition of internal assay controls. For concentration response curves, normalized data is fit and IC50 determined using XL-fit (IDBS) for Excel. IC50 were averaged to determine a mean value, for a minimum of two independent experiments.
# Receptor interacting protein kinase 1 activity of exemplary compounds was determined according to the above general procedures.
# GST-hRIPK1 (8-327), sequence (Q13546 8-327): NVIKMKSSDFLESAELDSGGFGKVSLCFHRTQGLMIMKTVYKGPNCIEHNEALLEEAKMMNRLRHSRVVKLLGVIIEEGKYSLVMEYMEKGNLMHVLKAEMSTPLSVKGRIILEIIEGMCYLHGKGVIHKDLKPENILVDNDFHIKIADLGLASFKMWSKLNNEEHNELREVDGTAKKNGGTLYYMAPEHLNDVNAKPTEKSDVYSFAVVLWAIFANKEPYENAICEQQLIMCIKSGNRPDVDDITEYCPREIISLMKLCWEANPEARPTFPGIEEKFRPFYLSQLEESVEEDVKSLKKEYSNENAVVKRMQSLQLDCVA
row,IC50,SMILES
1,< 1000 nM,"Cc1cnc(C2CCN3CCCC(C)(C(F)F)C(=O)N23)cn1 (single isomer, unassigned) [Example 13, 6-(difluoromethyl)-6-methyl-3-(5-methylpyrazin-2-yl)-1,2,3,7,8,9-hexahydropyrazolo[1,2-a]diazepin-5-one]"
2,< 1000 nM,"CC1(C(F)F)CCCN2CCC(c3cncc(C#N)c3)N2C1=O (single isomer, unassigned) [Example 15, 5-[6-(difluoromethyl)-6-methyl-5-oxo-1,2,3,7,8,9-hexahydropyrazolo[1,2-a]diazepin-3-yl]pyridine-3-carbonitrile]"
3,< 1000 nM,"CC1(C)CCCN2CCC(c3cccc(F)c3)N2C1=O (single isomer, unassigned) [Example 5, 3-(3-fluorophenyl)-6,6-dimethyl-1,2,3,7,8,9-hexahydropyrazolo[1,2-a]diazepin-5-one]"
4,< 1000 nM,"CC1(C)CCCN2CCC(c3cncc(C#N)c3)N2C1=O (racemic) [Example 9, 5-(6,6-dimethyl-5-oxo-1,2,3,7,8,9-hexahydropyrazolo[1,2-a]diazepin-3-yl)pyridine-3-carbonitrile]"
5,< 1000 nM,"CC1(C)CCCN2CCC(c3cc(F)cc(C#N)c3)N2C1=O (stereo not drawn) [Example 6, 3-(6,6-dimethyl-5-oxo-1,2,3,7,8,9-hexahydropyrazolo[1,2-a]diazepin-3-yl)-5-fluoro-benzonitrile]"
6,< 1000 nM,"CCC1(C(F)F)CCCN2CCC(c3cnc(C)cn3)N2C1=O (single isomer, unassigned) [Example 17, 6-(difluoromethyl)-6-ethyl-3-(5-methylpyrazin-2-yl)-1,2,3,7,8,9-hexahydropyrazolo[1,2-a]diazepin-5-one]"
7,< 1000 nM,"CC1(C)CCCN2CCC(c3cc(F)cc(F)c3)N2C1=O (single isomer, unassigned) [Example 3, 3-(3,5-difluorophenyl)-6,6-dimethyl-1,2,3,7,8,9-hexahydropyrazolo[1,2-a]diazepin-5-one]"
8,< 1000 nM,"Cc1cnc(C2CCN3CCCC(C)(C(F)F)C(=O)N23)cn1 (single isomer, unassigned) [Example 12, 6-(difluoromethyl)-6-methyl-3-(5-methylpyrazin-2-yl)-1,2,3,7,8,9-hexahydropyrazolo[1,2-a]diazepin-5-one]"
9,< 1000 nM,"CC1(C)CCCN2CCC(c3ccc(F)c(F)c3)N2C1=O (single isomer, unassigned) [Example 4, 3-(3,4-difluorophenyl)-6,6-dimethyl-1,2,3,7,8,9-hexahydropyrazolo[1,2-a]diazepin-5-one]"
10,< 1000 nM,"CC1(C(F)F)CCCN2CCC(c3cncc(F)c3)N2C1=O (racemic) [Example 11, 6-(difluoromethyl)-3-(5-fluoro-3-pyridyl)-6-methyl-1,2,3,7,8,9-hexahydropyrazolo[1,2-a]diazepin-5-one]"
11,< 1000 nM,"CC1(C(F)F)CCCN2CCC(c3cncc(C#N)c3)N2C1=O (single isomer, unassigned) [Example 14, 5-[6-(difluoromethyl)-6-methyl-5-oxo-1,2,3,7,8,9-hexahydropyrazolo[1,2-a]diazepin-3-yl]pyridine-3-carbonitrile]"
12,< 1000 nM,"CC1(C)CCCN2CCC(c3cncc(F)c3)N2C1=O (racemic) [Example 1, 3-(5-fluoro-3-pyridyl)-6,6-dimethyl-1,2,3,7,8,9-hexahydropyrazolo[1,2-a]diazepin-5-one]"
13,< 1000 nM,"CC1(C(F)F)CCCN2CCC(c3cncc(F)c3)N2C1=O (single isomer, unassigned) [Example 10, 6-(difluoromethyl)-3-(5-fluoro-3-pyridyl)-6-methyl-1,2,3,7,8,9-hexahydropyrazolo[1,2-a]diazepin-5-one]"
14,1000 to 30000 nM,"CCC1(C)COC[C@H]2CC[C@@H](c3cccc(F)c3)N2C1=O (stereo partly drawn) [Example 8, (7S,9aR)-4-ethyl-7-(3-fluorophenyl)-4-methyl-1,3,7,8,9,9a-hexahydropyrrolo[2,1-c][1,4]oxazepin-5-one]"
15,< 1000 nM,"Cc1cnc(C2CCN3CCCC(C)(C)C(=O)N23)cn1 (single isomer, unassigned) [Example 2, 6,6-dimethyl-3-(5-methylpyrazin-2-yl)-1,2,3,7,8,9-hexahydropyrazolo[1,2-a]diazepin-5-one]"
16,< 1000 nM,"CC1(C)CCCN2CCC(c3ccc(C#N)cc3)N2C1=O (stereo not drawn) [Example 7, 4-(6,6-dimethyl-5-oxo-1,2,3,7,8,9-hexahydropyrazolo[1,2-a]diazepin-3-yl)benzonitrile]"
17,< 1000 nM,"CCC1(C(F)F)CCCN2CCC(c3cnc(C)cn3)N2C1=O (racemic) [Example 18, 6-(difluoromethyl)-6-ethyl-3-(5-methylpyrazin-2-yl)-1,2,3,7,8,9-hexahydropyrazolo[1,2-a]diazepin-5-one]"
18,1000 to 30000 nM,"O=C1N2C(c3cncc(F)c3)CCN2CCCC12CC2 (racemic) [Example 16, 3-(5-fluoro-3-pyridyl)spiro[1,2,3,7,8,9-hexahydropyrazolo[1,2-a]diazepine-6,1′-cyclopropane]-5-one]"
